biological target: T1, K-Ras G12C (Homo sapiens, UniProt P01116, G12C); experiment: CAF assay (% CAF; method in Example 7, not in this part); type: binding; conditions: 10 uM compound, 1 h incubation
T1 construct: This protein contained 188 amino acids in total, including an N-terminal 6-Histidine tag; made in house; host or cells: E. coli BL21

| % CAF @ 10 uM, 1h [%] | SMILES |
| --- | --- |
| 72.9 | C=CC(=O)N1C[C@H](C)N(c2nc(=O)n3c4c(c(-c5ccc(F)cc5F)c(C(F)(F)F)cc24)SC[C@@H]3COCCOC)C[C@H]1C (atropisomer, axis not shown) [Example 510, (3S,10S)-7-((2S,5R)-4-acryloyl-2,5-dimethylpiperazin-1-yl)-10-(2,4-difluorophenyl)-3-((2-methoxyethoxy)methyl)-9-(trifluoromethyl)-2,3-dihydro-5H-[1,4]thiazino[2,3,4-ij]quinazolin-5-one] |
| 51.5 | C=CC(=O)N1CCN(c2nc(=O)n3c4c(c(-c5ccc(F)cc5F)c(C(F)(F)F)cc24)S(=O)(=O)C[C@@H]3CC2CCN(CC)CC2)[C@@H](C)C1 [Example 434, (3S)-7-((S)-4-acryloyl-2-methylpiperazin-1-yl)-10-(2,4-difluorophenyl)-3-((1-ethylpiperidin-4-yl)methyl)-9-(trifluoromethyl)-2H-[1,4]thiazino[2,3,4-ij]quinazolin-5(3H)-one 1,1-dioxide] |
| 82.8 | C=CC(=O)N1CCN(c2nc(=O)n3c4c(c(-c5cc(Cl)c(F)cc5F)c(Cl)cc24)SC[C@@H]3CC2CCN(C3COC3)CC2)[C@@H](C)C1 [Example 426, (3S)-7-((S)-4-acryloyl-2-methylpiperazin-1-yl)-9-chloro-10-(5-chloro-2,4-difluorophenyl)-3-((1-(oxetan-3-yl)piperidin-4-yl)methyl)-2H-[1,4]thiazino[2,3,4-ij]quinazolin-5(3H)-one] |
| 17.5 | C=CC(=O)N1[C@H](C)CN(c2nc(=O)n3c4c(c(-c5cc(F)c(F)cc5F)c(Cl)cc24)SC[C@@H]3COC)C[C@@H]1C [Example 506, (3S)-7-((3S,5R)-4-acryloyl-3,5-dimethylpiperazin-1-yl)-9-chloro-3-(methoxymethyl)-10-(2,4,5-trif1uorophenyl)-2,3-dihydro-5H-[1,4]thiazino[2,3,4-ij]quinazolin-5-one] |
| 49.8 | C=CC(=O)N1C[C@H](C)N(c2nc(=O)n3c4c(c(-c5cc(F)c(F)cc5F)c(Cl)cc24)SC[C@@H]3CC2CCN(C3CC3)CC2)C[C@H]1C [Example 475, (3S)-7-((2S,5R)-4-acryloyl-2,5-dimethylpiperazin-1-yl)-9-chloro-3-((1-cyclopropylpiperidin-4-yl)methyl)-10-(2,4,5-trifluorophenyl)-2H-[1,4]thiazino[2,3,4-ij]quinazolin-5(3H)-one] |
| 85.1 | C=CC(=O)N1C[C@H](C)N(c2nc(=O)n3c4c(c(-c5ccc(F)cc5)c(C(F)(F)F)cc24)SC[C@@H]3COC)C[C@H]1C [Example 497, (S)-7-((2S,5R)-4-acryloyl-2,5-dimethylpiperazin-1-yl)-10-(4-fluorophenyl)-3-(methoxymethyl)-9-(trifluoromethyl)-2H-[1,4]thiazino[2,3,4-ij]quinazolin-5(3H)-one] |
| 93.6 | C=CC(=O)N1CCN(c2nc(=O)n3c4c(c(-c5cc(Cl)c(F)cc5F)c(C(F)(F)F)cc24)SC[C@@H]3COC)CC1 [Example 572, (3S)-7-(4-acryloylpiperazin-1-yl)-10-(5-chloro-2,4-difluorophenyl)-3-(methoxymethyl)-9-(trifluoromethyl)-2H-[1,4]thiazino[2,3,4-ij]quinazolin-5(3H)-one] |
| 72.3 | C=CC(=O)N1CCN(c2nc(=O)n3c4c(c(-c5ccc(F)cc5F)c(Cl)cc24)SC[C@@H]3CN2CCC3(CC2)COC3)[C@@H](C)C1 [Example 472, (3S)-3-(2-oxa-7-azaspiro[3.5]nonan-7-ylmethyl)-7-((S)-4-acryloyl-2-methylpiperazin-1-yl)-9-chloro-10-(2,4-difluorophenyl)-2H-[1,4]thiazino[2,3,4-ij]quinazolin-5(3H)-one] |
| 95.6 | C=CC(=O)N1[C@H](C)CN(c2nc(=O)n3c4c(c(-c5ccc(F)cc5F)c(C(F)(F)F)cc24)SC[C@@H]3CN2C[C@@H]3C[C@H]2CO3)C[C@@H]1C [Example 560, (3S)-3-(((1S,4S)-2-oxa-5-azabicyclo[2.2.1]heptan-5-yl)methyl)-7-((3S,5R)-4-acryloyl-3,5-dimethylpiperazin-1-yl)-10-(2,4-difluorophenyl)-9-(trifluoromethyl)-2,3-dihydro-5H-[1,4]thiazino[2,3,4-ij]quinazolin-5-one] |

| SMILES | % CAF @ 10 uM, 1h [%] |
| --- | --- |
| C=CC(=O)N1C2CC(=O)CC1CN(c1nc(=O)n3c4c(c(-c5ccc(F)cc5F)c(C(F)(F)F)cc14)SC[C@@H]3COC)C2 [Example 571, (3S)-7-(9-acryloyl-7-oxo-3,9-diazabicyclo[3.3.1]nonan-3-yl)-10-(2,4-difluorophenyl)-3-(methoxymethyl)-9-(trifluoromethyl)-2H-[1,4]thiazino[2,3,4-ij]quinazolin-5(3H)-one] | 95.2 |
| C=C(F)C(=O)N1C2CC(=O)CC1CN(c1nc(=O)n3c4c(c(-c5ccc(F)cc5F)c(C(F)(F)F)cc14)SCCC3)C2 [Example 451, 11-(2,4-difluorophenyl)-8-(9-(2-fluoroacryloyl)-7-oxo-3,9-diazabicyclo[3.3.1]nonan-3-yl)-10-(trifluoromethyl)-3,4-dihydro-2H,6H-[1,4]thiazepino[2,3,4-ij]quinazolin-6-one] | 61 |

same assay, conditions: 10 uM, 1 h; Table 3

| % CAF @ 10 uM, 1h [%] | SMILES |
| --- | --- |
| 96 | C=CC(=O)N1CCN(c2nc(=O)n3c4c(c(-c5ccc(F)cc5F)c(Cl)cc24)SC[C@H]3CC2CCN(CC(F)F)CC2)[C@@H](C)C1 [Example 69, (3R)-7-((S)-4-acryloyl-2-methylpiperazin-1-yl)-9-chloro-3-((1-(2,2-difluoroethyl)piperidin-4-yl)methyl)-10-(2,4-difluorophenyl)-2,3-dihydro-5H-[1,4]thiazino[2,3,4-ij]quinazolin-5-one] |
| 87.2 | C=CC(=O)N1CCN(c2nc(=O)n3c4c(c(-c5ccc(F)cc5F)c(Cl)cc24)SC[C@H]3C)[C@@H](C)C1 [Example 99, (3R)-7-((S)-4-acryloyl-2-methylpiperazin-1-yl)-9-chloro-10-(2,4-difluorophenyl)-3-methyl-2H-[1,4]thiazino[2,3,4-ij]quinazolin-5(3H)-one] |
| 93.5 | C[C@H]1CN(C(=O)/C=C/C(F)F)CCN1c1nc(=O)n2c3c(c(-c4ccc(Cl)c(F)c4)c(Cl)cc13)SCC2 [Example 80, (S,E)-9-chloro-10-(4-chloro-3-fluorophenyl)-7-(4-(4,4-difluorobut-2-enoyl)-2-methylpiperazin-1-yl)-2,3-dihydro-5H-[1,4]thiazino[2,3,4-ij]quinazolin-5-one] |
| 44.6 | C=CC(=O)N1CCN(c2nc(=O)n3c4c(c(-c5ccc(F)cc5F)c(Cl)cc24)SCC3CN2CCOCC2)[C@@H](C)C1 (stereo partly drawn) [Example 147, 7-((S)-4-acryloyl-2-methylpiperazin-1-yl)-9-chloro-10-(2,4-difluorophenyl)-3-(morpholinomethyl)-2,3-dihydro-5H-[1,4]thiazino[2,3,4-ij]quinazolin-5-one] |
| 87.8 | C=CC(=O)N1CCN(c2nc(=O)n3c4c(c(-c5cccc6ccncc56)c(Cl)cc24)SCC3)[C@@H](C)C1 [Example 71, 7-((S)-4-acryloyl-2-methylpiperazin-1-yl)-9-chloro-10-(isoquinolin-8-yl)-2,3-dihydro-5H-[1,4]thiazino[2,3,4-ij]quinazolin-5-one] |
| 33.1 | C=CC(=O)N1CCN(c2nc(=O)n3c4c(c(-c5ccc(F)cc5F)c(Cl)cc24)SCC3CN2CCN(C)CC2)[C@@H](C)C1 (stereo partly drawn) [Example 126, 7-((S)-4-acryloyl-2-methylpiperazin-1-yl)-9-chloro-10-(2,4-difluorophenyl)-3-((4-methylpiperazin-1-yl)methyl)-2,3-dihydro-5H-[1,4]thiazino[2,3,4-ij]quinazolin-5-one] |
| 91.7 | C=CC(=O)N1CCN(c2nc(=O)n3c4c(c(-c5cccc6cnn(C)c56)c(Cl)cc24)SCC3)[C@@H](C)C1 (atropisomer, axis not shown) [Example 108, (R)-7-((S)-4-acryloyl-2-methylpiperazin-1-yl)-9-chloro-10-(1-methyl-1H-indazol-7-yl)-2,3-dihydro-5H-[1,4]thiazino[2,3,4-ij]quinazolin-5-one] |
| 94.8 | C=CC(=O)N1CCN(c2nc(=O)n3c4c(c(-c5c(F)cc(F)cc5F)c(Cl)cc24)SC[C@H]3CC2CCN(C)CC2)[C@@H](C)C1 [Example 91, (R)-7-((S)-4-acryloyl-2-methylpiperazin-1-yl)-9-chloro-3-((1-methylpiperidin-4-yl)methyl)-10-(2,4,6-trifluorophenyl)-2,3-dihydro-5H-[1,4]thiazino[2,3,4-ij]quinazolin-5-one] |

same assay, conditions: 10 μM, 1 h; Table 4

| % CAF @ 10 μM, 1 h [%] | SMILES |
| --- | --- |
| 96.6 | C=CC(=O)N1CCN(c2nc(=O)n3c4c(c(-c5c(F)cc(F)cc5F)c(Cl)cc24)SC[C@H]3CCCN2C[C@@H]3C[C@H]2CO3)[C@@H](C)C1 [Example 339, (R)-3-(3-((1S,4S)-2-oxa-5-azabicyclo[2.2.1]heptan-5-yl)propyl)-7-((S)-4-acryloyl-2-methylpiperazin-1-yl)-9-chloro-10-(2,4,6-trifluorophenyl)-2H-[1,4]thiazino[2,3,4-ij]quinazolin-5(3H)-one] |
| 87.2 | C=CC(=O)N1CCN(c2nc(=O)n3c4c(c(-c5ccc(F)cc5F)c(Cl)cc24)SC[C@H]3C)[C@@H](C)C1 [Example 99, (3R)-7-((S)-4-acryloyl-2-methylpiperazin-1-yl)-9-chloro-10-(2,4-difluorophenyl)-3-methyl-2H-[1,4]thiazino[2,3,4-ij]quinazolin-5(3H)-one] |
| 95 | C=CC(=O)N1CCN(c2nc(=O)n3c4c(c(-c5ccc(F)cc5F)c(Cl)cc24)SC[C@@H]3CN2CCN(CC(F)F)CC2)[C@@H](C)C1 [Example 356, (3S)-7-((S)-4-acryloyl-2-methylpiperazin-1-yl)-9-chloro-3-((4-(2,2-difluoroethyl)piperazin-1-yl)methyl)-10-(2,4-difluorophenyl)-2H-[1,4]thiazino[2,3,4-ij]quinazolin-5(3H)-one] |
| 95 | C=CC(=O)N1CCN(c2nc(=O)n3c4c(c(-c5ccc(F)cc5F)c(C(F)(F)F)cc24)SC[C@@H]3CN2CCN(CC)CC2)[C@@H](C)C1 [Example 350, (3S)-7-((S)-4-acryloyl-2-methylpiperazin-1-yl)-10-(2,4-difluorophenyl)-3-((4-ethylpiperazin-1-yl)methyl)-9-(trifluoromethyl)-2H-[1,4]thiazino[2,3,4-ij]quinazolin-5(3H)-one] |

Reference: patent US20230107642A1 (Erasca, Inc., priority 2020, published 2023)
